Measured values as given in patent publication US6969730B2, “Amines as histamine-3 receptor ligands and their therapeutic applications” (Abbott Laboratories, priority 2001, dated 2005).

These compounds were tested against T1, histamine-3 receptors (H3 receptor) (Rattus norvegicus, UniProt Q9QYN8) (assay: (3H)-N-α-methylhistamine binding to rat cortical membranes (histamine-3 receptor ligands)). Conditions: male Sprague-Dawley rat brain cortical membranes; (3H)-N-α-methylhistamine ~0.6 nM; 30 minutes at 25° C.; Cheng-Prusoff.
T1 construct: from tissue; host or cells: male Sprague-Dawley rat brain cortex membranes
Procedure: Briefly, male Sprague-Dawley rat brain cortices were homogenized (1 g tissue/10 mL buffer) in 50 mM Tris-HCl/5 mM EDTA containing protease inhibitor cocktail (Calbiochem) using a polytron set at 20,500 rpm. Homogenates were centrifuged for 20 minutes at 40,000×g. The supernatant was decanted, and pellets were weighed. The pellet was resuspended by polytron homogenization in 40 mL 50 mM Tris-HCl/5 mM EDTA with protease inhibitors and centrifuged for 20 minutes at 40,000×g. […] Rat cortical membranes (12 mg wet weight/tube) were incubated with (^3H)-N-α-methylhistamine (˜0.6 nM) with or without H3 receptor antagonists in a total incubation volume of 0.5 mL of 50 mM Tris-HCl/5 mM EDTA (pH 7.7). Test compounds were dissolved in DSMO to provide a 20 mM solution, serially diluted and then added to the incubation mixture prior to initiating the incubation assay by addition of the membranes. Thioperamide (3 μM) was used to determine nonspecific binding. Binding incubations were conducted for 30 minutes at 25° C. and terminated by addition of 2 mL of ice cold 50 mM Tris-HCl (pH 7.7) and filtration through 0.3% polyethylenimine-soaked Unifilter plates (Packard). These filters were washed 4 additional times with 2 mL of ice-cold 50 mM Tris-HCl and dried for 1 hour. Radioactivity was determined using liquid scintillation counting techniques. Results were analyzed by Hill transformation and Ki values were determined using the Cheng-Prusoff equation.

T1 sequence (Q9QYN8 whole entry): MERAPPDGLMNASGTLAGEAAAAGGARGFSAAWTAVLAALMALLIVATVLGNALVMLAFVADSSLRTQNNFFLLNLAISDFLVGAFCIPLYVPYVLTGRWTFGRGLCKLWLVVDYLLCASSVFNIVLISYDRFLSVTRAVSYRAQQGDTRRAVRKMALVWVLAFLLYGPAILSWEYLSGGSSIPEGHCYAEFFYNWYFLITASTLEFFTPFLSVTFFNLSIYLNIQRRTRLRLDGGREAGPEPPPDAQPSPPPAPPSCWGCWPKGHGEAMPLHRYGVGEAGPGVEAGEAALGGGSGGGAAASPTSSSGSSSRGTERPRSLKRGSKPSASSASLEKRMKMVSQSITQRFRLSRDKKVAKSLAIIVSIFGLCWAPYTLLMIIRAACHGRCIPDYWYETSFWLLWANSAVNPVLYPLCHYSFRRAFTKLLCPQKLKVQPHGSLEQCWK

SMILES	Ki
C[C@@H]1CCCN1CCc1cc2cc(-c3noc(-c4ccccc4Cl)n3)ccc2o1 [Example 90, 5-(2-chlorophenyl)-3-(2-{2-[(2R)-2-methylpyrrolidin-1-yl]ethyl}-1-benzofuran-5-yl)-1,2,4-oxadiazole]	21 nM
C[C@@H]1CCCN1CCc1cc2cc(-c3noc(Cc4ccc(F)cc4)n3)ccc2o1 [Example 91, 5-(4-fluorobenzyl)-3-(2-{2-[(2R)-2-methylpyrrolidin-1-yl]ethyl}-1-benzofuran-5-yl)-1,2,4-oxadiazole]	10 nM
COc1ccc(Cc2nc(-c3ccc4oc(CCN5CCC[C@H]5C)cc4c3)no2)cc1 [Example 92, 5-(4-methoxybenzyl)-3-(2-{2-[(2R)-2-methylpyrrolidin-1-yl]ethyl}-1-benzofuran-5-yl)-1,2,4-oxadiazole]	15 nM
C[C@@H]1CCCN1CCc1cc2cc(-c3noc(-c4ccccc4)n3)ccc2o1 [Example 94, 3-(2-{2-[(2R)-2-methylpyrrolidin-1-yl]ethyl}-1-benzofuran-5-yl)-5-phenyl-1,2,4-oxadiazole]	16 nM
C[C@@H]1CCCN1CCc1cc2cc(-c3noc(-c4ccc(F)cc4)n3)ccc2o1 [Example 95, 5-(4-fluorophenyl)-3-(2-{2-[(2R)-2-methylpyrrolidin-1-yl]ethyl}-1-benzofuran-5-yl)-1,2,4-oxadiazole]	12 nM
C[C@@H]1CCCN1CCc1cc2cc(-c3noc(-c4ccc(F)c(Cl)c4)n3)ccc2o1 [Example 96, 5-(3-chloro-4-fluorophenyl)-3-(2-{2-[(2R)-2-methylpyrrolidin-1-yl]ethyl}-1-benzofuran-5-yl)-1,2,4-oxadiazole]	223 nM
C[C@@H]1CCCN1CCc1cc2cc(-c3noc(CCl)n3)ccc2o1 [Example 97, 5-(chloromethyl)-3-(2-{2-[(2R)-2-methylpyrrolidin-1-yl]ethyl}-1-benzofuran-5-yl)-1,2,4-oxadiazole]	1.4 nM
CCCc1nc(-c2ccc3oc(CCN4CCC[C@H]4C)cc3c2)no1 [Example 98, 3-(2-{2-[(2R)-2-methylpyrrolidin-1-yl]ethyl}-1-benzofuran-5-yl)-5-propyl-1,2,4-oxadiazole]	0.7 nM
CCc1nc(-c2ccc3oc(CCN4CCC[C@H]4C)cc3c2)no1 [Example 99, 5-ethyl-3-(2-{2-[(2R)-2-methylpyrrolidin-1-yl]ethyl}-1-benzofuran-5-yl)-1,2,4-oxadiazole]	3.6 nM
Cc1nc(-c2ccc3oc(CCN4CCC[C@H]4C)cc3c2)no1 [Example 100, 5-methyl-3-(2-{2-[(2R)-2-methylpyrrolidin-1-yl]ethyl}-1-benzofuran-5-yl)-1,2,4-oxadiazole]	6 nM
Cc1ccccc1-c1ccc2oc(CCN3CCC[C@H]3C)cc2c1 [Example 115, (2R)-2-methyl-1-{2-[5-(2-methylphenyl)-1-benzofuran-2-yl]ethyl}pyrrolidine]	33 nM
COc1ccccc1-c1ccc2oc(CCN3CCC[C@H]3C)cc2c1 [Example 119, (2R)-1-{2-[5-(2-methoxyphenyl)-1-benzofuran-2-yl]ethyl}-2-methylpyrrolidine]	66 nM

Other lines, results leading:

Ki	SMILES
3.4 nM	C[C@@H]1CCCN1CCc1oc2ccc(-c3ccc(C#N)cc3)cc2c1Br [Example 101, 4-(3-bromo-2-{2-[(2R)-2-methylpyrrolidin-1-yl]ethyl}-1-benzofuran-5-yl)benzonitrile]
18 nM	C[C@@H]1CCCN1CCc1oc2ccc(-c3ccc(C#N)cc3)cc2c1-c1ccco1 [Example 102, 4-(3-(2-furyl)-2-{2-[(2R)-2-methylpyrrolidin-1-yl]ethyl}-1-benzofuran-5-yl)benzonitrile]
13 nM	C[C@@H]1CCCN1CCc1oc2ccc(-c3ccc(C#N)cc3)cc2c1-c1cccnc1 [Example 103, 4-[2-{2-[(2R)-2-methyl-1-pyrrolidinyl]ethyl}-3-(3-pyridinyl)-1-benzofuran-5-yl]benzonitrile]
41 nM	C[C@@H]1CCCN1CCc1oc2ccc(-c3ccc(C#N)cc3)cc2c1-c1ccsc1 [Example 104, 4-[2-{2-[(2R)-2-methyl-1-pyrrolidinyl]ethyl}-3-(3-thienyl)-1-benzofuran-5-yl]benzonitrile]
6 nM	C[C@@H]1CCCN1CCc1oc2ccc(-c3ccc(C#N)cc3)cc2c1-c1ccsc1C=O [Example 105, 4-(3-(2-formyl-3-thienyl)-2-{2-[(2R)-2-methyl-1-pyrrolidinyl]ethyl}-1-benzofuran-5-yl)benzonitrile]
2.3 nM	Cc1cc(-c2ccc3oc(CCN4CCC[C@H]4C)cc3c2)ccc1C#N [Example 106, 2-methyl-4-(2-{2-[(2R)-2-methyl-1-pyrrolidinyl]ethyl}-1-benzofuran-5-yl)benzonitrile]
8 nM	Cc1cc(C#N)ccc1-c1ccc2oc(CCN3CCC[C@H]3C)cc2c1 [Example 107, 3-methyl-4-(2-{2-[(2R)-2-methyl-1-pyrrolidinyl]ethyl}-1-benzofuran-5-yl)benzonitrile]
10 nM	Cc1cc(-c2ccc(C#N)cc2)cc2cc(CCN3CCC[C@H]3C)oc12 [Example 109, 4-(7-methyl-2-{2-[(2R)-2-methyl-1-pyrrolidinyl]ethyl}-1-benzofuran-5-yl)benzonitrile]
6 nM	C[C@@H]1CCCN1CCc1cc2cc(-c3ccc(C#N)cc3)cc(F)c2o1 [Example 110, 4-(7-fluoro-2-{2-[(2R)-2-methyl-1-pyrrolidinyl]ethyl}-1-benzofuran-5-yl)benzonitrile]
9 nM	C[C@@H]1CCCN1CCc1cc2cc(-c3ccc(C#N)c(F)c3)ccc2o1 [Example 111, 2-fluoro-4-(2-{2-[(2R)-2-methyl-1-pyrrolidinyl]ethyl}-1-benzofuran-5-yl)benzonitrile]
3 nM	C[C@@H]1CCCN1CCc1cc2cc(-c3cccc(C#N)c3)ccc2o1 [Example 112, 3-(2-{2-[(2R)-2-methyl-1-pyrrolidinyl]ethyl}-1-benzofuran-5-yl)benzonitrile]
77 nM	C[C@@H]1CCCN1CCc1cc2cc(-c3ccc(F)cc3)ccc2o1 [Example 113, (2R)-1-{2-[5-(4-fluorophenyl)-1-benzofuran-2-yl]ethyl}-2-methylpyrrolidine]
97 nM	C[C@@H]1CCCN1CCc1cc2cc(-c3ccc(Cl)c(Cl)c3)ccc2o1 [Example 114, (2R)-1-{2-[5-(3,4-dichlorophenyl)-1-benzofuran-2-yl]ethyl}-2-methylpyrrolidine]
30 nM	Cc1cccc(-c2ccc3oc(CCN4CCC[C@H]4C)cc3c2)c1 [Example 116, (2R)-2-methyl-1-{2-[5-(3-methylphenyl)-1-benzofuran-2-yl]ethyl}pyrrolidine]
110 nM	Cc1ccc(-c2ccc3oc(CCN4CCC[C@H]4C)cc3c2)cc1 [Example 117, (2R)-2-methyl-1-{2-[5-(4-methylphenyl)-1-benzofuran-2-yl]ethyl}pyrrolidine]
42 nM	COC(=O)c1ccc(-c2ccc3oc(CCN4CCC[C@H]4C)cc3c2)cc1 [Example 118, methyl 4-(2-{2-[(2R)-2-methyl-1-pyrrolidinyl]ethyl}-1-benzofuran-5-yl)benzoate]
23 nM	COc1cccc(-c2ccc3oc(CCN4CCC[C@H]4C)cc3c2)c1 [Example 120, (2R)-1-{2-[5-(3-methoxyphenyl)-1-benzofuran-2-yl]ethyl}-2-methylpyrrolidine]
17 nM	C[C@@H]1CCCN1CCc1cc2cc(-c3cccc(F)c3)ccc2o1 [Example 122, (2R)-1-{2-[5-(3-fluorophenyl)-1-benzofuran-2-yl]ethyl}-2-methylpyrrolidine]
